In ChEMBL document CHEMBL3877313, “3,4-Dihydropyrimidinone-coumarin analogues as a new class of selective agent against S. aureus: Synthesis, biological evaluation and molecular modelling study” (2017):
≈ marks a conversion by molar mass, not a printed value.

Assays:
Staphylococcus aureus = test: Antibacterial activity against Staphylococcus aureus ATCC 12598 after 24 hrs by broth microdilution method; format: functional; conditions: ATCC 12598, 24 h
Pseudomonas aeruginosa = test: Antibacterial activity against Pseudomonas aeruginosa ATCC 25619 after 24 hrs by broth microdilution method; format: functional; conditions: ATCC 25619, 24 h
[1] = target: 72 kDa type IV collagenase (Homo sapiens) (UniProt P08253); test: Inhibition of MMP2 in inflamed tissue isolated from chronic periodontitis patient at 500 ug/l after 15 to 30 mins by gelatin zymographic method relative to control
72 kDa type IV collagenase (Homo sapiens), sequence (P08253 110-660 limits assumed): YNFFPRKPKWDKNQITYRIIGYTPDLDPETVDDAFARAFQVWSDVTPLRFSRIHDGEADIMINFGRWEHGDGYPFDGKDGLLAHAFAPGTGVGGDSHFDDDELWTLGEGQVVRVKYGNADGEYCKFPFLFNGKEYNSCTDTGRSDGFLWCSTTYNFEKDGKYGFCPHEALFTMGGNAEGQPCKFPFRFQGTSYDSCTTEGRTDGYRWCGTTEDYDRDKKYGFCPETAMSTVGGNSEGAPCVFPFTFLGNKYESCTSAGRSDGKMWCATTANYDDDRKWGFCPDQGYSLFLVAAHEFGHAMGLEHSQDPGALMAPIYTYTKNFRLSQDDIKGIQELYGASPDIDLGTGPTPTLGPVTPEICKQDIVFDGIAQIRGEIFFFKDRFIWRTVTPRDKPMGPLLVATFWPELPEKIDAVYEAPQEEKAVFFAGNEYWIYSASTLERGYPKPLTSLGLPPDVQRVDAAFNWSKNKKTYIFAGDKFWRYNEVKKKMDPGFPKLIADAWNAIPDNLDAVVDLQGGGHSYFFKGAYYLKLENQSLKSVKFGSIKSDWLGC

Bacillus subtilis = test: Antibacterial activity against Bacillus subtilis ATCC 23857 after 24 hrs by broth microdilution method; format: functional; conditions: ATCC 23857, 24 h
Escherichia coli = test: Antibacterial activity against Escherichia coli ATCC 25922 after 24 hrs by broth microdilution method; format: functional; conditions: ATCC 25922, 24 h
[2] = target: Matrix metalloproteinase-9 (Homo sapiens) (UniProt P14780); test: Inhibition of MMP9 in inflamed tissue isolated from chronic periodontitis patient at 500 ug/l after 15 to 30 mins by gelatin zymographic method relative to control
Matrix metalloproteinase-9 (Homo sapiens), sequence (P14780 whole entry): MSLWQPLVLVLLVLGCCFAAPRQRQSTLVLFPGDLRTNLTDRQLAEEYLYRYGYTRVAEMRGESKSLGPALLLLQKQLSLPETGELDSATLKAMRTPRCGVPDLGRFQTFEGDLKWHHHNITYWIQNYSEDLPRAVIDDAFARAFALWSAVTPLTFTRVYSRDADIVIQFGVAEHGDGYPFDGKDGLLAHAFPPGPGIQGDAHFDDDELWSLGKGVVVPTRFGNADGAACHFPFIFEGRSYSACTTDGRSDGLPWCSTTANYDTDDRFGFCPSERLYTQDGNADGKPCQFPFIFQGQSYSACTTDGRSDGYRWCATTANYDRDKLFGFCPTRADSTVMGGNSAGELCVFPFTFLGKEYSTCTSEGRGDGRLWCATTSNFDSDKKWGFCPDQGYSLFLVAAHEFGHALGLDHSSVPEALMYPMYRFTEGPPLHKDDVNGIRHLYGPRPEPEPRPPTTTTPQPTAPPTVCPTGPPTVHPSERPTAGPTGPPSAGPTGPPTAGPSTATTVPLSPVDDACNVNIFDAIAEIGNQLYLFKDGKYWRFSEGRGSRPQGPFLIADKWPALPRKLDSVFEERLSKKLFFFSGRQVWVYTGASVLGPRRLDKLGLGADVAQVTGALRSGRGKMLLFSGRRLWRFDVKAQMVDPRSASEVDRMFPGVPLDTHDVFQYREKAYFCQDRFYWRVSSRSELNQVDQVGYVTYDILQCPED

Compound | MIC (Staphylococcus aureus) [µg/mL] | MIC (Pseudomonas aeruginosa) [µg/mL] | inhibition [1] [%] | MIC (Bacillus subtilis) [µg/mL] | MIC (Escherichia coli) [µg/mL] | inhibition [2] [%]
CCOC(=O)C1=C(C)NC(=S)NC1c1cc(=O)oc2ccc(Cl)cc12 (configuration not stated) | 0.8 (≈ 2.11 µM) | 100 (≈ 264 µM) | 85 | 50 (≈ 132 µM) | 0.4 (≈ 1.06 µM) | 
CCOC(=O)C1=C(C)NC(=S)NC1c1cc(=O)oc2cc(C)ccc12 (configuration not stated) | 6.25 (≈ 17.4 µM) | 100 (≈ 279 µM) | 80 | 50 (≈ 140 µM) | 25 (≈ 69.8 µM) | 30
CCOC(=O)C1=C(C)NC(=O)NC1c1cc(=O)oc2c1ccc1ccccc12 (configuration not stated) | 0.4 (≈ 1.06 µM) | 25 (≈ 66.1 µM) | 96 | 100 (≈ 264 µM) | 25 (≈ 66.1 µM) | 90
O=C(O)c1cn(C2CC2)c2cc(N3CCNCC3)c(F)cc2c1=O [CIPROFLOXACIN] | 2 (≈ 6.04 µM) | < 4 |  | 2 (≈ 6.04 µM) |  | 
CCOC(=O)C1=C(C)NC(=S)NC1c1cc(=O)oc2ccc(C)cc12 (configuration not stated) | 0.4 (≈ 1.12 µM) | 100 (≈ 279 µM) | 82 | 100 (≈ 279 µM) | 1.6 (≈ 4.46 µM) | 
CCOC(=O)C1=C(C)NC(=S)NC1c1cc(=O)oc2ccc(OC)cc12 (configuration not stated) | 0.8 (≈ 2.14 µM) | 100 (≈ 267 µM) | 87 | 50 (≈ 134 µM) | 25 (≈ 66.8 µM) | 10
CCOC(=O)C1=C(C)NC(=O)NC1c1cc(=O)oc2ccc(C)cc12 (configuration not stated) | 0.4 (≈ 1.17 µM) | 100 (≈ 292 µM) | 90 | 12.5 (≈ 36.5 µM) | 50 (≈ 146 µM) | 80
CCOC(=O)C1=C(C)NC(=S)NC1c1cc(=O)oc2c1ccc1ccccc12 (configuration not stated) | 0.4 (≈ 1.01 µM) | 100 (≈ 254 µM) | 90 | 100 (≈ 254 µM) | 0.4 (≈ 1.01 µM) | 95
CCOC(=O)C1=C(C)NC(=O)NC1c1cc(=O)oc2cc(C)ccc12 (configuration not stated) | 0.2 (≈ 0.584 µM) | 100 (≈ 292 µM) | 95 | 50 (≈ 146 µM) | 12.5 (≈ 36.5 µM) | 70
CCOC(=O)C1=C(C)NC(=O)NC1c1cc(=O)oc2ccc(Cl)cc12 (configuration not stated) | 3.12 (≈ 8.6 µM) | 50 (≈ 138 µM) | 85 | 100 (≈ 276 µM) | 25 (≈ 68.9 µM) | 
CN(C)[C@@H]1C(O)=C(C(N)=O)C(=O)[C@@]2(O)C(O)=C3C(=O)c4c(O)cccc4[C@@](C)(O)[C@H]3C[C@@H]12 |  |  | 100 |  |  | 100
CCOC(=O)C1=C(C)NC(=O)NC1c1cc(=O)oc2ccc(OC)cc12 (configuration not stated) | 0.8 (≈ 2.23 µM) | 25 (≈ 69.8 µM) | 95 | 100 (≈ 279 µM) | 50 (≈ 140 µM) | 85
